Holding throughout (type): cell-based, Schizosaccharomyces pombe
In experiment [1] the test system is DKO strain (S. pombe Δplh1 Δdga1 double deletion). In words: Cell viability assay (colony forming) after treatment. As to the method:
(§1) Cell viability assay: For cell viability at different growth phases, cells were grown to various densities in YES (determined by OD595). The number of viable cells was obtained after cells were diluted properly in distilled water and plated in triplicates on YES agar. Colonies were scored after 3 days of incubation at 30° C. For cell viability after various treatments, cells were grown to early log phase (OD595=0.1) before lipids or other chemicals were added. After treatment, cells were collected and viability was analyzed as described above.
(§2) DAG, fatty acid and ceramide treatment: For fatty acid treatment, palmitic acid and oleic acid were dissolved in chloroform as 500 mM stock. Each microliter of fatty acids was dissolved in 12.5 μl tyloxapol-enthanol (1:1) and added into growth medium. Wild type and DKO strains were grown to early log phase and then incubated in medium containing different concentrations (0.5 mM, 0.8 mM and 1 mM) of palmitic acid or oleic acid for 0-3 hours. Control groups were cultured in the medium added with the same volume of tyloxapol-enthanol without fatty acids. After incubation, cells were analyzed for viability and DNA fragmentation. DiC8 DAG and ceramide were dissolved in DMSO. The working concentrations for DAG was 0.1 mM, 0.2 mM or 0.3 mM, while for ceramide was 10 μM or 20 μM (23, 24).

For experiment [2] the test system is unchanged. In words: Detection of apoptotic markers: DAPI staining and TUNEL (DNA fragmentation). Particulars: for apoptosis induced by fatty acid: DKO cells, early log phase, two hours (FIGS. 14-16); for cells undergoing apoptosis in the presence of the inhibitor / rescue of palmitate-induced apoptosis: double deletion cells treated with 0.8 mM of palmitate. As to the method:
as §2
Detection of apoptotic markers: All assays in this section were performed as previously described (26).
(§3) 4′,6-diamidino-2-phenylindole (DAPI) staining: Cells were fixed with 3.7% formaldehyde for 10 minutes, washed once with PBS containing 4% NP40 and twice with PBS, and then stained with DAPI. Cells were viewed using a Leica DMLB microscope.
(§4) Terminal deoxynucleotidyl transferase(TdT)-mediated dUTP nick-end labeling (TUNEL): Cells were fixed with 3.7% formaldehyde for 1 hr, digested with zymolase, washed with PBS, incubated in a permeabilization solution (0.1% Triton in 0.1% sodium citrate) for 2 minutes on ice, washed twice with PBS and incubated with 50 μl TUNEL mixtures for 1 hour at 37° C. Cells were washed with PBS twice and were viewed using a Leica DMLB microscope.

Experiment [3] relates to DKO cells. In words: Production of reactive oxygen species (dihydroethidium). The settings on record: for ROS production: incubation of log phase cells. As to the method:
Production of reactive oxygen species: ROS were detected by dihydroethidium (Sigma), which was used at 5 μg per ml cell culture. After incubation for 10 minutes, cells were viewed under a Leica DMLB microscope through a Texas Red filter. The free radical spin trap reagent 3,3,5,5,-tetramethyl-pyrroline N-oxide (TMPO) was used at 125 μg per ml cell culture. Cells were pretreated with […] for 2 hours before lipids were added.

Experiment [4] concerns DKO cells. In words: Diacylglycerol kinase assay of cellular DAG level. As to the method:
(§5) Diacylglycerol kinase assay: The assay was conducted as described in the Biotrak assay reagents system (Amersham Biosciences). Wild type and DKO yeast cells were grown in YES medium to mid log phase and then treated with medium containing 0.8 mM palmitate or oleate. Cells were collected at different time points (0, 30, 60 and 120 minutes). DAG was extracted with other lipids and quantified through a phosphorylation reaction catalyzed by a bacterial DAG kinase.

Another experiment concerns wild type cells. In words: Diacylglycerol kinase assay of cellular DAG level, wild type. The settings on record: after 2-hour incubation with palmitate, from 1. As to the method: as §5
The test system of experiment [5] is WT and DKO S. pombe cells. In words: DHS, PHS or C2-ceramide treatment: viability and DNA fragmentation. The settings on record: various concentrations, 0-3 hours. As to the method:
as §1, §2, §3, §4

Setting [6] is: DKO strain, early log phase cells, various concentrations of diC8 DAG, 0-3 hours.
Setting [7] is: mutant cells pretreated with TMPO (125 μg/ml) for 2 hours, then 1 mM palmitate for 2 hours.
The mark [8] stands for this setting: caspase inhibitor added, data not shown.

Residues, ends and D or L forms follow the SMILES beside them. *: point of attachment. Cbz = O=C(OCc1ccccc1)*; CH2F = FC*

Turning to `CCCCCCCC(=O)OC[C@H](CO)OC(=O)CCCCCCC` [diC8 DAG, 1,2-dioctanoyl-sn-glycerol], in experiment [1] (setting [6]), the cell death result is “cell death were observed in the DKO strain”. Moreover, in experiment [2] (setting [6]), the “nuclear DNA fragmentation” value is “prominent nuclear DNA fragmentation”. Also, the “percentage of cells showing DNA fragmentation, dependence on time and concentration” value in experiment [2] (DKO strain, up to 3 hours, up to 0.3 mM) is “generally increases with time (up to 3 hours) and concentration”. Further, the ROS production entry in the experiment on DKO cells [3] is “induced dramatic ROS production”.

For `CCCCCCCCCCCCCCCC(=O)O` [palmitate, palmitic acid], the “apoptosis induced by fatty acid” value in experiment [2] is “caused the DKO cells to undergo apoptosis”. Also, the DAG level with DKO cells [4] (after 2-hour incubation with 0.8 mM palmitate, 1 nmol/mg dry weight before addition) is reported as 3.5 nmol/mg dry weight; in the experiment with wild type cells, 1.5 nM/mg dry weight. Further, in the experiment on DKO cells [3], the ROS production result is reported as “induced dramatic ROS production”.

For `CCCCCCCCCCCCCC[C@@H](O)[C@@H](O)[C@@H](N)CO` [PHS, phytosphingosine], in experiment [5], the DNA fragmentation result is given as “no DNA fragmentation was observed” and the “killing of S. pombe cells” value was “could kill S. pombe cells at high concentrations”.

Consider `CC1(C)C=[N+]([O-])C(C)(C)C1` [TMPO, 3,3,5,5,-tetramethyl-pyrroline N-oxide], for which the “prevention of cell death” value in experiment [1] (setting [7]) was “prevent DNA fragmentation (FIG. 24) and cell death”. The “prevention of DNA fragmentation” value in experiment [2] (setting [7]) was “prevent DNA fragmentation”. In the experiment on DKO cells [3] (setting [7]), the “scavenging of ROS” value is reported as “could effectively scavenge ROS”.

As to `CCCCCCCCCCCCCCC[C@@H](O)[C@@H](N)CO` [DHS, dihydrosphingosine], in experiment [5], the DNA fragmentation entry was “no DNA fragmentation was observed” and the “killing of S. pombe cells” value is “could kill S. pombe cells at high concentrations”.

As for `CCCCCCCCCCCCC/C=C/[C@@H](O)[C@H](CO)NC(C)=O` [C2-ceramide, N-acetylsphigosine], in experiment [5], the DNA fragmentation entry is “no DNA fragmentation was observed” and the “killing of S. pombe cells” value is reported as “could kill S. pombe cells at high concentrations”.

With `CCCCCCCC/C=C\CCCCCCCC(=O)O` [oleate, oleic acid], in experiment [2], the “apoptosis induced by fatty acid” value was “caused the DKO cells to undergo apoptosis”. Moreover, the DAG level in the experiment with DKO cells [4] (after 2-hour incubation with oleate, from 1) came to 2.5 nM/mg dry weight. Moreover, the ROS production entry with DKO cells [3] is listed as “induced dramatic ROS production”.

Regarding `CCCCCCC(=O)CCCCCC/C=C/C[C@@H](O)[C@H](O)[C@@](N)(CO)C(=O)O` [myriocin], in experiment [2] (data not shown), the “cells undergoing apoptosis in the presence of the inhibitor” value is given as “more cells underwent apoptosis” and the “rescue of palmitate-induced apoptosis” value is “no rescue of apoptosis was observed”.

Take `CCCC[C@@H](C)[C@@H](OC(=O)C[C@@H](CC(=O)O)C(=O)O)[C@H](C[C@@H](C)C[C@H](O)CCCC[C@@H](O)C[C@H](O)[C@H](C)N)OC(=O)C[C@@H](CC(=O)O)C(=O)O` [fumonisin B1]: in experiment [2] (data not shown), the “cells undergoing apoptosis in the presence of the inhibitor” value is “more cells underwent apoptosis” and the “rescue of palmitate-induced apoptosis” value was “no rescue of apoptosis was observed”.

Consider `COC(=O)C[C@H](NC(=O)[C@H](C)NC(=O)[C@@H](NC(=O)OCc1ccccc1)C(C)C)C(=O)CF` [zVADfmk] (Cbz-Val-Ala-Asp(OMe)-CH2F), for which the “prevention of cell death” value in experiment [1] (setting [8]) was “failed to prevent cell death”. For the same molecule, in experiment [2] (setting [8]), the “prevention of DNA fragmentation” value was “failed to prevent cell death and DNA fragmentation”.
